Results reported in patent publication US20230339981A1, “KRAS G12D MODULATING COMPOUNDS” (priority 2022, published 2023).

Tests used:
[1] = biological target: GDP-loaded KRAS G12D (Homo sapiens (Human), UniProt P01116, G12D); experiment: KRAS G12D (GDP) biochemical assay (TR-FRET probe displacement); format: binding; details: 2 hours
Summary of the method: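 TR-FRET probe displacement: 1:3 DMSO serial dilutions pre-incubated 30 min with GDP-bound KRAS G12D, followed by Eu-streptavidin/probe for 2 h at room temperature (Hepes pH 7.4, NaCl, MgCl2, Tween-20 buffer). IC50 defined as concentration halving TR-FRET ratio, from sigmoidal dose-response fit.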

[2] = test system: GP2D (KRAS G12D) cells; experiment: 2D cell viability assay (CellTiter-Glo); format: cell-based; details: GP2d, 96 h, 4 days
Summary of the method: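 Viability was read by CellTiter-Glo after 4 days at 37 °C of 2D culture of KRAS G12D GP2D cells (1000/well, RPMI, 10% FBS) on pre-spotted threefold compound dilutions. EC50 was fitted with a sigmoidal dose-response model as the point of half-maximal luminescence loss.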

[3] = test system: AsPC-1 (KRAS G12D) cells; experiment: 3D cell viability assay (spheroids, CellTiter-Glo 3D); format: cell-based; details: Homo sapiens, ASPC1, 96 h, AsPC-1 cells, 3D spheroids, 4 days
Protocol: Example C. 3D Cell Viability Assay
Compounds were tested in a 384-well format for their ability to inhibit the viability of AsPC-1 (KRAS G12D) cells in 3D assays. On day 0, 1000 cells/well (80 μL volume per well) in DMEM with 10% FBS, and Penicillin-Streptomycin-Glutamine were plated in 384-well Ultra-Low Attachment Spheroid Microplates (Corning, Catalog #3830) on the BioTEK EL406 liquid dispenser with a 5 μL dispensing cassette (BioTek 7170011). The plates were incubated at 37° C., 5% CO2 for 3 days to allow spheroid formation. On day 3, compounds were serially diluted (1:3) in DMSO. The Biomek FX was used to add 400 nL of test molecule per well. The plates were incubated at 37° C., 5% CO2 for 4 days before addition of CellTiter-Glo 3D (Promega, Catalog #9683) reagent and measurement of luminescence signal. EC50 values were defined as the compound concentration that causes a 50% decrease in luminescence signal and were calculated using a sigmoidal dose-response model to generate curve fits.

Sequence of GDP-loaded KRAS G12D (P01116-2 other isoform, or with tags, fused parts or gaps G12D): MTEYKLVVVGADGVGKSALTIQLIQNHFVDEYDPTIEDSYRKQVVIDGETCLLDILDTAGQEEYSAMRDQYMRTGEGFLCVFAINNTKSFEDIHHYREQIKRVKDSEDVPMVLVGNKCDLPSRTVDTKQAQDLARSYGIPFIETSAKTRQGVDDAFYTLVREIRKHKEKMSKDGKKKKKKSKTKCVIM

Row | Compound | IC50 [1] [nM] | EC50 [2] [nM] | EC50 [3] [nM]
1 | C#Cc1c(F)ccc2cccc(-c3nc4c5c(nc(OC[C@@]67CCCN6C[C@H](F)C7)nc5c3F)N3C[C@H]5CC[C@H](N5)[C@H]3[C@H](CC)O4)c12 [Example 169, (5S,5aS,6S,9R)-5-ethyl-2-(8-ethynyl-7-fluoronaphthalen-1-yl)-1-fluoro-12-(((2R,7aS)-2-fluorotetrahydro-1H-pyrrolizin-7a(5H)-yl)methoxy)-5a,6,7,8,9,10-hexahydro-5H-4-oxa-3,10a,11,13,14-pentaaza-6,9-methanonaphtho[1,8-ab]heptalene] | 0.8 | 26.5 | 190
2 | C#Cc1c(F)ccc2cc(O)cc(-c3nc4c5c(nc(OC[C@@]67CCCN6[C@H](CF)CC7)nc5c3F)N3C[C@H]5CC[C@H](N5)[C@H]3CC4)c12 [Example 165, 5-ethynyl-6-fluoro-4-((5aR,6S,9R)-1-fluoro-12-(((3S,7aS)-3-(fluoromethyl)tetrahydro-1H-pyrrolizin-7a(5H)-yl)methoxy)-4,5,5a,6,7,8,9,10-octahydro-3,10a,11,13,14-pentaaza-6,9-methanonaphtho[1,8-ab]heptalen-2-yl)naphthalen-2-ol] | < 0.1 | 0.7 | 3.9
3 | Oc1cc(-c2nc3c4c(nc(OC[C@@]56CCCN5C[C@H](F)C6)nc4c2F)N2C[C@H]4CC[C@H](N4)[C@H]2CO3)c2c(OC(F)(F)F)cccc2c1 [Example 3, 4-((5aS,6S,9R)-1-fluoro-12-(((2R,7aS)-2-fluorotetrahydro-1H-pyrrolizin-7a(5H)-yl)methoxy)-5a,6,7,8,9,10-hexahydro-5H-4-oxa-3,10a,11,13,14-pentaaza-6,9-methanonaphtho[1,8-ab]heptalen-2-yl)-5-(trifluoromethoxy)naphthalen-2-ol] | 2 | 24 | 160
4 | C#Cc1c(F)ccc2cc(O)cc(-c3nc4c5c(nc(OC[C@@]67CCCN6C[C@H](F)C7)nc5c3F)N3C[C@H]5CC[C@H](N5)[C@H]3CCO4)c12 [Example 123, 5-ethynyl-6-fluoro-4-((6aR,7S,10R)-1-fluoro-13-(((2R,7aS)-2-fluorotetrahydro-1H-pyrrolizin-7a(5H)-yl)methoxy)-5,6,6a,7,8,9,10,11-octahydro-4-oxa-3,11a,12,14,15-pentaaza-7,10-methanocyclohepta[4,5]cycloocta[1,2,3-de]naphthalen-2-yl)naphthalen-2-ol] | < 0.1 | 0.5 | 3
5 | C#Cc1c(F)ccc2cccc(-c3nc4c5c(nc(OC[C@@]67CCCN6C[C@H](F)C7)nc5c3F)N3C[C@H]5CC[C@H](N5)[C@@H]3[C@@H](C)[C@H]4C)c12 [Example 86, (4R,5S,5aS,6S,9R)-2-(8-ethynyl-7-fluoronaphthalen-1-yl)-1-fluoro-12-(((2R,7aS)-2-fluorotetrahydro-1H-pyrrolizin-7a(5H)-yl)methoxy)-4,5-dimethyl-4,5,5a,6,7,8,9,10-octahydro-3,10a,11,13,14-pentaaza-6,9-methanonaphtho[1,8-ab]heptalene] | 0.5 | 14.4 | 64
6 | C#Cc1c(F)ccc2cc(O)cc(-c3nc4c5c(nc(OC[C@@]67CCCN6C[C@H](F)C7)nc5c3F)N3C[C@H]5CC[C@H](N5)[C@H]3CCCC4)c12 [Example 189, 5-ethynyl-6-fluoro-4-((7aR,8S,11R)-1-fluoro-14-(((2R,7aS)-2-fluorotetrahydro-1H-pyrrolizin-7a(5H)-yl)methoxy)-4,5,6,7,7a,8,9,10,11,12-decahydro-3,12a,13,15,16-pentaaza-8,11-methanocyclohepta[4,5]cyclonona[1,2,3-de]naphthalen-2-yl)naphthalen-2-ol] | 0.1 | 0.6 | 2.9
7 | C#Cc1c(F)ccc2cc(O)cc(-c3nc4c5c(nc(OCC6(CN7CCC8(CC7)CC8)CC6)nc5c3F)N3C[C@H]5CC[C@H](N5)[C@H]3CC4)c12 [Example 177, 4-((5aR,6S,9R)-12-((1-((6-azaspiro[2.5]octan-6-yl)methyl)cyclopropyl)methoxy)-1-fluoro-4,5,5a,6,7,8,9,10-octahydro-3,10a,11,13,14-pentaaza[6,9]methanonaphtho[1,8-ab]heptalen-2-yl)-5-ethynyl-6-fluoronaphthalen-2-ol] | – | 1.5 | 20
8 | C#Cc1c(F)ccc2cccc(-c3nc4c5c(nc(OC[C@@]67CCCN6[C@H](COc6cccc(S(F)(F)(F)(F)F)c6)CC7)nc5c3F)N3C[C@H]5CC[C@H](N5)[C@H]3CC4)c12 [Example 108, (5aR,6S,9R)-2-(8-ethynyl-7-fluoronaphthalen-1-yl)-1-fluoro-12-(((3S,7aS)-3-((3-(pentafluoro-λ^6-sulfaneyl)phenoxy)methyl)tetrahydro-1H-pyrrolizin-7a(5H)-yl)methoxy)-4,5,5a,6,7,8,9,10-octahydro-3,10a,11,13,14-pentaaza-6,9-methanonaphtho[1,8-ab]heptalene] | 1.5 | 450 | –
9 | C#Cc1c(F)ccc2cccc(-c3nc4c5c(nc(OC[C@@]67CCCN6[C@H](COc6cc(C(F)(F)F)ncn6)CC7)nc5c3F)N3C[C@H]5CC[C@H](N5)[C@H]3CC[C@H]4C)c12 [Example 203, (4R,6aR,7S,10R)-2-(8-ethynyl-7-fluoronaphthalen-1-yl)-1-fluoro-4-methyl-13-(((3S,7aS)-3-(((6-(trifluoromethyl)pyrimidin-4-yl)oxy)methyl)tetrahydro-1H-pyrrolizin-7a(5H)-yl)methoxy)-5,6,6a,7,8,9,10,11-octahydro-4H-3,11a,12,14,15-pentaaza-7,10-methanocyclohepta[4,5]cycloocta[1,2,3-de]naphthalene] | 0.12 | 1.2 | –
10 | C#Cc1c(F)ccc2cc(O)cc(-c3nc4c5c(nc(OC[C@@]67CCCN6[C@H](COC(=O)N(C)C(F)(F)F)CC7)nc5c3F)N3C[C@H]5CC[C@H](N5)[C@H]3CO4)c12 [Example 45, ((3S,7aS)-7a-((((5aS,6S,9R)-2-(8-ethynyl-7-fluoro-3-hydroxynaphthalen-1-yl)-1-fluoro-5a,6,7,8,9,10-hexahydro-5H-4-oxa-3,10a,11,13,14-pentaaza-6,9-methanonaphtho[1,8-ab]heptalen-12-yl)oxy)methyl)hexahydro-1H-pyrrolizin-3-yl)methyl methyl(trifluoromethyl)carbamate] | 0.3 | 4 | –
11 | C#Cc1c(F)ccc2cccc(-c3nc4c5c(nc(OC[C@]67CCCN6C[C@H](OC(C(F)(F)F)(C(F)(F)F)C(F)(F)F)C7)nc5c3F)N3C[C@H]5CC[C@H](N5)[C@H]3CC4)c12 [Example 145, (5aR,6S,9R)-2-(8-ethynyl-7-fluoronaphthalen-1-yl)-1-fluoro-12-((cis-2-((1,1,1,3,3,3-hexafluoro-2-(trifluoromethyl)propan-2-yl)oxy)tetrahydro-1H-pyrrolizin-7a(5H)-yl)methoxy)-4,5,5a,6,7,8,9,10-octahydro-3,10a,11,13,14-pentaaza-6,9-methanonaphtho[1,8-ab]heptalene] | 100 | 100 | –
12 | C#Cc1c(F)ccc2cccc(-c3nc4c5c(nc(OC[C@@]67CCCN6[C@H](COC(C(F)(F)F)(C(F)(F)F)C(F)(F)F)CC7)nc5c3F)N3C[C@H]5CC[C@H](N5)[C@H]3CC4)c12 [Example 187, (5aR,6S,9R)-2-(8-ethynyl-7-fluoronaphthalen-1-yl)-1-fluoro-12-(((3S,7aS)-3-(((1,1,1,3,3,3-hexafluoro-2-(trifluoromethyl)propan-2-yl)oxy)methyl)tetrahydro-1H-pyrrolizin-7a(5H)-yl)methoxy)-4,5,5a,6,7,8,9,10-octahydro-3,10a,11,13,14-pentaaza-6,9-methanonaphtho[1,8-ab]heptalene] | 0.9 | 62 | –
13 | Fc1ccc2ccccc2c1-c1nc2c3c(nc(OC[C@@]45CCCN4C[C@H](F)C5)nc3c1F)N1C[C@H]3CC[C@H](N3)[C@H]1CO2 [Example 48, (5aS,6S,9R)-1-fluoro-2-(2-fluoronaphthalen-1-yl)-12-(((2R,7aS)-2-fluorotetrahydro-1H-pyrrolizin-7a(5H)-yl)methoxy)-5a,6,7,8,9,10-hexahydro-5H-4-oxa-3,10a,11,13,14-pentaaza-6,9-methanonaphtho[1,8-ab]heptalene] | 2200 | > 1000 | –
14 | C#Cc1c(F)ccc2cc(N)cc(-c3nc4c5c(nc(OC[C@@]67CCCN6C[C@H](F)C7)nc5c3F)N3C[C@H]5CC[C@H](N5)[C@@H]3[C@@H](C)C4)c12 [Example 196, 5-ethynyl-6-fluoro-4-((5S,5aS,6S,9R)-1-fluoro-12-(((2R,7aS)-2-fluorotetrahydro-1H-pyrrolizin-7a(5H)-yl)methoxy)-5-methyl-4,5,5a,6,7,8,9,10-octahydro-3,10a,11,13,14-pentaaza-6,9-methanonaphtho[1,8-ab]heptalen-2-yl)naphthalen-2-amine] | 0.1 | 1.8 | –
